The source of these data is patent publication US9775353B2, “Pesticidally active heterocyclic derivatives with sulphur containing substituents” (Syngenta Participations AG, priority 2014, dated 2017).

For data set [1], the system named is Spodoptera littoralis (Egyptian cotton leaf worm). Description: Example B1: Activity against Spodoptera littoralis (larvicide, feeding/residual contact, preventive). Format: in vivo. As to conditions: foliar, 72 h, cotton leaf discs sprayed, L1 larvae, mortality, repellent effect, feeding behaviour, growth regulation 3 days after treatment. From the text:
Example B1: Activity Against Spodoptera littoralis (Egyptian Cotton Leaf Worm) (Larvicide, Feeding/Residual Contact Activity, Preventive) Cotton leaf discs were placed on agar in a 24-well microtiter plate and sprayed with test solutions. After drying, the leaf discs were infested with 5 L1 larvae. The samples were checked for mortality, repellent effect, feeding behaviour, and growth regulation 3 days after treatment (DAT).

Data set [2] deals with Plutella xylostella (diamond back moth). The data set is described as follows: Example B2: Activity against Plutella xylostella (larvicide, feeding/residual contact, preventive). The data set is classed as in vivo. To be noted: 120 h, artificial diet, L2 larvae, larval mortality, antifeedant, growth regulation after 5 days. As for the experimental part: Example B2: Activity Against Plutella xylostella (Diamond Back Moth) (Larvicide, Feeding/Residual Contact Activity, Preventive) 24-well microtiter plate (MTP) with artificial diet was treated with test solutions by pipetting. After drying, the MTPs were infested with L2 larvae (10-15 per well). After an incubation period of 5 days, samples were checked for larval mortality, antifeedant and growth regulation.

Data set [3] deals with Diabrotica balteata (corn root worm). Description: Example B3: Activity against Diabrotica balteata (larvae L2 on maize sprouts, feeding/contact, preventative). Format: in vivo. As to conditions: 120 h, maize sprouts sprayed, larval mortality and growth regulation after 5 days. As for the experimental part:
Example B3: Activity Against Diabrotica balteata (Corn Root Worm) (Larvae L2 on Maize Sprouts, Feeding/Contact, Preventative) Maize sprouts, placed on an agar layer in 24 well micro titer plates were treated with test solutions by spraying. After drying, the MTPs were infested with L2 larvae (6-10 per well). After an incubation period of 5 days, samples were checked for larval mortality and growth regulation.

Data set [4] relates to Bemisia tabaci (cotton white fly). Description: Example B5: Activity against Bemisia tabaci (adulticide contact activity, preventative). The data set is classed as in vivo. To be noted: foliar, 168 h, cotton leaf discs sprayed, adult white flies, mortality 7 DAT. As for the experimental part:
Example B5: Activity Against Bemisia tabaci (Cotton White Fly) (Adulticide Contact Activity, Preventative), Adult Cotton leaf discs were placed on agar in a 24-well microtiter plate and sprayed with test solutions. After drying, the leaf discs were infested with adult white flies. After an incubation period of 7 DAT, samples were checked for mortality and special effects (e.g. phytotoxicity).

For data set [5], the system named is Spodoptera littoralis (Egyptian cotton leaf worm). Description: Example B7: Activity against Spodoptera littoralis (systemic activity). The data set is classed as in vivo. To be noted: 120 h, systemic via lettuce roots in agar, mortality, repellent effect, feeding behavior, growth regulation 5 days after infestation. From the text:
Example B7: Activity Against Spodoptera littoralis (Egyptian Cotton Leaf Worm) (Systemic Activity) Test compounds were applied by pipette into 24 well plates and mixed with agar. Lettuce seeds were placed on the agar and the multi well plate is closed by another plate which contains also agar. After 7 days the roots have absorbed the compound and the lettuce has grown into the lid plate. The lettuce leaves were now cut off into the lid plate. Spodoptera eggs were pipetted through a plastic stencil on a humid gel blotting paper and the plate closed with it. The samples are checked for mortality, repellent effect, feeding behavior, and growth regulation 5 days after infestation.

The test system of data set [6] is Myzus persicae (green peach aphid). Description: Example B8: Activity against Myzus persicae (feeding/residual contact, preventive, mixed population). The data set is classed as in vivo. As to conditions: foliar, 144 h, sunflower leaf discs sprayed, mixed ages, mortality 6 DAT. As for the experimental part:
Example B8: Activity Against Myzus persicae (Green Peach Aphid) (Feeding/Residual Contact Activity, Preventive), Mixed Population Sunflower leaf discs were placed on agar in a 24-well microtiter plate and sprayed with test solutions. After drying, the leaf discs were infested with an aphid population of mixed ages. After an incubation period of 6 DAT, samples were checked for mortality and special effects (e.g. phytotoxicity).

Data set [7] relates to Euschistus heros (neotropical brown stink bug). Description: Example B10: Activity against Euschistus heros. The data set is classed as in vivo. To be noted: 120 h, soybean leaf sprayed, N-2 nymphs, mortality 5 days after infestation. On the procedure: Example B10: Activity Against Euschistus heros (Neotropical Brown Stink Bug) Soybean leaf on agar in 24-well microtiter plates were sprayed with aqueous test solutions prepared from 10,000 ppm DMSO stock solutions. After drying the leaf were infested with N-2 nymphs. The samples were assessed for mortality 5 days after infestation.

Data set [8] has as its system Tetranychus urticae (two-spotted spider mite). Description: Example B12: Activity against Tetranychus urticae. Format: in vivo. To be noted: foliar, 192 h, application rate 400 ppm, bean leaf discs sprayed, mixed population (mobile stages), 8 days after infestation. On the procedure:
Example B12: Activity Against Tetranychus urticae (Two-Spotted Spider Mite)
Bean leaf discs on agar in 24-well microtiter plates were sprayed with aqueous test solutions prepared from 10,000 ppm DMSO stock solutions. After drying the leaf discs were infested with a mite population of mixed ages. The samples were assessed for mortality on mixed population (mobile stages) 8 days after infestation.

The test system of data set [9] is Thrips tabaci (onion thrips). Description: Example B11: Activity against Thrips tabaci. The data set is classed as in vivo. As to conditions: foliar, 144 h, application rate 400 ppm, sunflower leaf discs sprayed, mixed ages, 6 days after infestation. As for the experimental part:
Example B11: Activity Against Thrips tabaci (Onion Thrips)
Sunflower leaf discs were placed on agar in 24-well microtiter plates and sprayed with aqueous test solutions prepared from 10,000 ppm DMSO stock solutions. After drying the leaf discs were infested with a thrips population of mixed ages. The samples were assessed for mortality 6 days after infestation.

As for `CCS(=O)(=O)c1cc(-c2ccc(C(F)(F)F)cc2)cnc1-c1nc2cc(C(F)(F)F)ncc2n1C` [Compound P2], the pest or weed control at 400 ppm in data set [1], in data set [2], in data set [3], in data set [4], in data set [6] and in [7] was > 80% each time. Further, in data set [5], the pest or weed control at 12.5 ppm was ≥ 80%.
Consider `CCS(=O)(=O)c1cc(-c2cccc(C(F)(F)F)c2)cnc1-c1nc2cc(C(F)(F)F)ncc2n1C` [Compound P3], for which the pest or weed control at 400 ppm in data set [1], in data set [2], in data set [3], in data set [4], in data set [6] and in data set [7] was > 80% in each case. In addition, in data set [5], the pest or weed control at 12.5 ppm is ≥ 80%.
As for `CCS(=O)(=O)c1cc(-c2ccccc2C(F)(F)F)cnc1-c1nc2cc(C(F)(F)F)ncc2n1C` [Compound P4], the pest or weed control at 400 ppm in data set [1] and in data set [3] was > 80% throughout. In addition, the mortality at 400 ppm in [8] was ≥ 80%.
Take `CCS(=O)(=O)c1cc(-c2cccc(Cl)c2)cnc1-c1nc2cc(C(F)(F)F)ncc2n1C` [Compound P5]: the pest or weed control at 400 ppm in data set [1], in data set [2], in [3], in data set [4], in [6] and in [7] was > 80% throughout. For the same compound, the pest or weed control at 12.5 ppm in data set [5] was ≥ 80%.
Turning to `CCS(=O)(=O)c1cc(-c2cc(F)cc(F)c2)cnc1-c1nc2cc(C(F)(F)F)ncc2n1C` [Compound P7], the pest or weed control at 400 ppm in [1], in [2], in data set [3], in data set [4], in [6] and in [7] was > 80% throughout. Further, the pest or weed control at 12.5 ppm in [5] is ≥ 80%. Moreover, the mortality at 400 ppm in data set [9] was ≥ 80%.
Regarding `CCS(=O)(=O)c1cc(-c2ccc(F)cc2)cnc1-c1nc2cc(C(F)(F)F)ncc2n1C` [Compound P13], the pest or weed control at 400 ppm in data set [1], in data set [2], in data set [3], in data set [4], in data set [6] and in data set [7] was > 80% in each case. In addition, the pest or weed control at 12.5 ppm in data set [5] is ≥ 80%. Besides, in [9], the mortality at 400 ppm is ≥ 80%.
`CCS(=O)(=O)c1cc(-c2cccc(OC(F)(F)F)c2)cnc1-c1nc2cc(C(F)(F)F)ncc2n1C` [Compound P25]: the pest or weed control at 400 ppm in data set [1], in data set [2], in data set [3], in data set [4], in data set [6] and in [7] was > 80% in each case. Also, the pest or weed control at 12.5 ppm in [5] is ≥ 80%.
For `CCS(=O)(=O)c1cc(-c2ccc(C#N)cc2)cnc1-c1nc2cc(C(F)(F)F)ncc2n1C` [Compound P36], the pest or weed control at 400 ppm in [1], in data set [2], in data set [3], in data set [4], in [6] and in data set [7] was > 80% throughout. Moreover, in [5], the pest or weed control at 12.5 ppm is ≥ 80%. For the same compound, the mortality at 400 ppm in data set [9] and in data set [8] was ≥ 80% throughout.
`CCS(=O)(=O)c1cc(-c2ccccc2)cnc1-c1nc2cc(C(F)(F)F)ncc2n1C` [Compound P39] displayed a melting point of 170 to 172 °C.
The same measure, in the same setting: the same measure for `CCS(=O)(=O)c1cc(-c2ccc(F)cc2F)cnc1-c1nc2cc(C(F)(F)F)ncc2n1C` [Compound P41]: 223 to 225 °C; for `CCS(=O)(=O)c1cc(-c2cc(Cl)cc(Cl)c2)cnc1-c1nc2cc(C(F)(F)F)ncc2n1C` [Compound P42]: 270 to 272 °C.
The compound `CCS(=O)(=O)c1cc(-c2cc(Cl)c(F)c(Cl)c2)cnc1-c1nc2cc(C(F)(F)F)ncc2n1C` [Compound P43] displayed a melting point of 235 to 237 °C.
`CCS(=O)(=O)c1cc(-c2cccc(C#N)c2)cnc1-c1nc2cc(C(F)(F)F)ncc2n1C` [Compound P44]: the melting point is 257 to 259 °C.
`CCS(=O)(=O)c1cc(-c2ccc(OC(F)(F)F)cc2)cnc1-c1nc2cc(C(F)(F)F)ncc2n1C` [Compound P45] showed a melting point of 181 to 183 °C.

What is called pest or weed control is how far the test organism was held down. High values mean strong suppression, low ones weak suppression. The term mortality denotes the percentage killed. The melting point is the temperature of the solid-liquid transition.
